Test results as given in patent US20060069132A1, “Azolecarboxamide herbicides” (priority 2004, published 2006).

Assays:
velvetleaf = experiment: Test B pre-/postemergence herbicide test; assay type: in vivo, Abutilon theophrasti
Summary of the method: (§1)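 Pre: seeds sown, then sprayed. Post: 1–4-leaf plants (2–18 cm) sprayed at the same time. Paddy: flooded, treated at 2-leaf stage. Formulation: non-phytotoxic solvent with surfactant. Greenhouse 13–15 days; visual 0–100 score relative to controls.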

rice = experiment: Test B flooded paddy test; assay type: in vivo, Oryza sativa; conditions: 1000 g ai/ha, visual rating, scale 0 to 100 (0 no effect, 100 complete control), 13 to 15 days
Summary of the method: (§2)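 Plants grow to 1- to 4-leaf stage (2–18 cm) for postemergence spraying, or to 2-leaf stage for the paddy test. Formulated compound is applied. Greenhouse holding lasts 13–15 days. Response is scored visually relative to controls, 0 no effect to 100 complete control; a dash means no result.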

giant foxtail = experiment: Test B pre-/postemergence herbicide test; assay type: in vivo, Setaria faberi
Summary of the method: as §1

ducksalad = experiment: Test B flooded paddy test; assay type: in vivo, Heteranthera limosa; conditions: 1000 g ai/ha, visual rating, scale 0 to 100 (0 no effect, 100 complete control), 13 to 15 days
Summary of the method: as §2

barnyardgrass [1] = experiment: Test B pre-/postemergence herbicide test; assay type: in vivo, Echinochloa crus-galli
Summary of the method: (§3)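 Species tested were Echinochloa crus-galli, Ipomoea coccinea, Xanthium strumarium and Oryza sativa, treated both before emergence and at the 1- to 4-leaf stage; rice and barnyardgrass were also tested under flooding at 2 leaves. Greenhouse incubation lasted 13–15 days before visual 0–100 scoring.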

barnyardgrass [2] = experiment: Test B flooded paddy test; assay type: in vivo, Echinochloa crus-galli; conditions: 1000 g ai/ha, visual rating, scale 0 to 100 (0 no effect, 100 complete control), 13 to 15 days
Summary of the method: as §2

[3] = test system: small flower umbrella sedge; experiment: Test B flooded paddy test; assay type: in vivo, Cyperus difformis; conditions: 1000 g ai/ha, visual rating, scale 0 to 100 (0 no effect, 100 complete control), 13 to 15 days
Summary of the method: as §2

blackgrass = experiment: Test B postemergence herbicide test; assay type: in vivo, Alopecurus myosuroides; conditions: scale 0 (no effect) to 100 (complete control)
Summary of the method: as §2

morningglory = experiment: Test B pre-/postemergence herbicide test; assay type: in vivo, Ipomoea coccinea
Summary of the method: as §3

corn = experiment: Test B pre-/postemergence herbicide test; assay type: in vivo, Zea mays
Summary of the method: as §1

large crabgrass = experiment: Test B pre-/postemergence herbicide test; assay type: in vivo, Digitaria sanguinalis
Summary of the method: as §1

pigweed = experiment: Test B pre-/postemergence herbicide test; assay type: in vivo, Amaranthus retroflexus
Summary of the method: as §1

wild oat = experiment: Test B postemergence herbicide test; assay type: in vivo, Avena fatua; conditions: scale 0 (no effect) to 100 (complete control)
Summary of the method: (§4)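 Visual ratings, 0 (no effect) to 100 (complete control), made versus controls after 13–15 d greenhouse. Paddy plants treated at 2-leaf stage; postemergence plants at 1- to 4-leaf stage, 2–18 cm tall.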

Surinam grass = experiment: Test B pre-/postemergence herbicide test; assay type: in vivo, Urochloa decumbens
Summary of the method: as §1

wheat = experiment: Test B postemergence herbicide test; assay type: in vivo, Triticum aestivum; design: key to Wheat plant response rating: 0 = no effect, 100 = complete control; conditions: scale 0 (no effect) to 100 (complete control)
Summary of the method: as §4

[4] = Postemergence, 500 g ai/ha, visual rating after 13 to 15 days, scale 0 (no effect) to 100 (complete control)
[5] = postemergence, 125 g ai/ha, visual rating, scale 0 (no effect) to 100 (complete control)
[6] = preemergence, 125 g ai/ha, 0 to 100 scale, 0 is no effect, 100 is complete control
[7] = Preemergence, 500 g ai/ha, scale 0 to 100
[8] = Postemergence, 500 g ai/ha, visual rating after 13 to 15 days
[9] = postemergence, 125 g ai/ha, visual rating

C=CCOC(=O)c1cccc(NC(=O)c2cc(C(C)(C)C)nn2CC)c1 [Compound 85]
Plant response rating, Velvetleaf (velvetleaf; [4]): 80
Velvetleaf plant response rating (velvetleaf; [5]): 60
Plant response rating, Velvetleaf (velvetleaf; [6]): 0
Rice plant response rating (rice): 40
Plant response rating, Foxtail, Giant (giant foxtail; [4]): 50
Foxtail, Giant plant response rating (giant foxtail; [7]): 0
Foxtail, Giant plant response rating (giant foxtail; [5]): 20
Plant response rating, Foxtail, Giant (giant foxtail; [6]): 0
Ducksalad plant response rating (ducksalad): 20
Plant response rating, Barnyardgrass (barnyardgrass [1]; [4]): 80
Barnyardgrass plant response rating (barnyardgrass [1]; [7]): 0
Barnyardgrass plant response rating (barnyardgrass [1]; [5]): 60
Plant response rating, Barnyardgrass (barnyardgrass [1]; [6]): 0
Barnyardgrass plant response rating (barnyardgrass [2]): 40
Sedge, Umbrella plant response rating [3]: 60
Plant response rating, Blackgrass (blackgrass; [8]): 20
Blackgrass plant response rating (blackgrass; [9]): 10
Plant response rating, Morningglory (morningglory; [4]): 100
Morningglory plant response rating (morningglory; [5]): 50
Plant response rating, Morningglory (morningglory; [6]): 0
Plant response rating, Corn (corn; [4]): 30
Corn plant response rating (corn; [7]): 0
Corn plant response rating (corn; [5]): 20
Plant response rating, Corn (corn; [6]): 0
Plant response rating, Crabgrass, Large (large crabgrass; [4]): 80
Crabgrass, Large plant response rating (large crabgrass; [7]): 0
Crabgrass, Large plant response rating (large crabgrass; [5]): 50
Plant response rating, Crabgrass, Large (large crabgrass; [6]): 0
Plant response rating, Pigweed (pigweed; [4]): 100
Pigweed plant response rating (pigweed; [5]): 100
Plant response rating, Pigweed (pigweed; [6]): 0
Plant response rating, Oat, Wild (wild oat; [8]): 50
Oat, Wild plant response rating (wild oat; [9]): 20
Plant response rating, Surinam Grass (Surinam grass; [4]): 70
Surinam Grass plant response rating (Surinam grass; [5]): 60
Plant response rating, Surinam Grass (Surinam grass; [6]): 0
Plant response rating, Wheat (wheat; [8]): 60
Wheat plant response rating (wheat; [9]): 50
